Our source for the P50 and P50 increase values is patent US20130190524A1, “CYCLITOLS AND THEIR DERIVATIVES AND THEIR THERAPEUTIC APPLICATIONS” (UNIVERSITE DE STRASBOURG, priority 2006, published 2013).

For test [1], the target named is T1, free hemoglobin (Hb) (Homo sapiens, UniProt P68871).
T1 construct: the cells were hemolysed by addition of 2 volumes of cold distilled water; tissue EFS-Alsace; host or cells: red blood cell concentrate, hemolysed, stroma removed, passed over Sephadex G-25
Briefly: P50 (oxygen equilibrium curve, Hemox Analyzer) on free hemoglobin. It counts as biochemical. Conditions: blood matrix Hb, free hemoglobin 100 μM, pH 7.4, 37° C.; for P50: effector 2 mM (effector/Hb ratio 20), n=3; for P50 increase: versus P50 control, effector 2 mM. Here is the method: (§1) Some of the compounds described herein were tested for P50 on free hemoglobin (Hb) as well as human whole blood (WB) as 120 mM solutions. The hemoglobin solution was prepared from red blood cells concentrate (EFS-Alsace) by washing three times with 1 volume of saline (1500×g, 10 min), the cells were hemolysed by addition of 2 volumes of cold distilled water. After centrifugation (7000×g, 30 min) for stroma removal, 5 ml of the clear hemoglobin solution were placed on a 2.5 cm×30 cm column of Sephadex G-25 equilibrated with 0.1 M sodium chloride+10^−5 M EDTA. The protein was eluted with the same solution at a rate of about 20 ml/h [Benesch, R.; Benesch, R. E. and Yu, C. I. Reciprocal binding of oxygen and diphosphoglycerate by human hemoglobin. Proc. Natl. Acad. Sci. USA (1968) 59, 526-532].
The allosteric modulation of the effectors was measured by the change in p50, the partial pressure of oxygen for half-saturation. myo-Inositol hexaphosphate (myo-1HP) was purchased from Sigma. Oxygen equilibrium curves (OEC) were carried out with the Hemox Analyzer (TCS Scientific Co.) under the following conditions: pH 7.4, 135 mM NaCl, 5 mM KCl and 30 mM TES (N-[tris(hydroxymethyl)methyl]-2-aminoethanesulfonic acid) buffer at 37° C. The concentration of free hemoglobin was 100 μM (577 nm, ε=58.4 mM^−1 cm^−1 per tetramer) and the final concentration of the allosteric effector in the cuvette was 2 mM resulting in an effector/Hb ratio of 20.

The subject of test [2] is human whole blood (WB). Briefly: P50 (oxygen dissociation curve, Hemox Analyzer) on human whole blood. It counts as cell-based. Conditions: blood matrix WB, 120 mM compound solution, 1:1 with whole blood; for P50: incubated two hours at 37° C., n=3; for P50 increase: versus P50 control, two hours at 37° C. Here is the method: as §1
Human blood was freshly withdrawn in heparinized tubes. The pH of the compound solutions was adjusted to approximately 7.0 and whole blood volumes at 1:1 ratios where incubated individually for two hours at 37° C. with the above compounds. Following, incubation, blood cells were washed 3 times with Bis-Tris-buffer. The measurement of oxygen dissociation curves was made in a Hemox-Analyzer instrument (TCS Scientific Corp.) A summary of P50 values for whole blood induced by the compounds is presented in Table 1.

T1 sequence (P68871 2-147 limits assumed): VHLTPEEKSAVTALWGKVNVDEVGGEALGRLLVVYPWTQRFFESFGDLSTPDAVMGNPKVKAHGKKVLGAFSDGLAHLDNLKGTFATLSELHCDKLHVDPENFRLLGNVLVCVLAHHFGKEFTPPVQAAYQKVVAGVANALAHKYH
T1 sequence (P69905 2-142 partner limits assumed): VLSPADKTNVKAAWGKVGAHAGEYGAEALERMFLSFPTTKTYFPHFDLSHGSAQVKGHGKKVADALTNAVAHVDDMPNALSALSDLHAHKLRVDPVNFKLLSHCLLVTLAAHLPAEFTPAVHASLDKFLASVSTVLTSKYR

As to `O=P(O)(O)O[C@H]1[C@H](OP(=O)(O)O)[C@@H](OP(=O)(O)O)[C@H](OP(=O)(O)O)[C@@H](OP(=O)(O)O)[C@H]1OP(=O)(O)O` [myo-IHP, myo-Inositol hexaphosphate, reference compound], in test [1], the P50 is 48.37 ± 3.71 Torr and the P50 increase is 282%.

As for `O[C@H]1[C@H](O)[C@@H](O)[C@H](O)[C@@H](O)[C@H]1O` [myo-Inositol (Compound 5, Scheme 6)], in test [1], the P50 is listed as 27.25 ± 0.14 Torr and the P50 increase was 148%. Besides, in test [2], the P50 worked out at 35.53 ± 1.43 Torr and the P50 increase is on record as 23%.

With `O[C@H]1[C@H](O)[C@@H](O)[C@H](O)[C@@H](O)[C@H]1O` [myo-Inositol (Compound 7, Scheme 6)], in test [1], the P50 is 27.43 ± 1.07 Torr and the P50 increase is 158%.

With “Hexasodium scyllo-inositol 1,2:3,4:5,6-trispyrophosphate [scyllo-ITPP (Compound 4, Scheme 5)]”, in test [1], the P50 turned out to be 23.02 ± 1.83 Torr and the P50 increase was 127%. In addition, in test [2], the P50 is listed as 34.10 ± 1.81 Torr and the P50 increase turned out to be 18%.
